Laboratory results taken from ChEMBL document CHEMBL1157980, “Guaianolides as immunomodulators. Synthesis and biological activities of dehydrocostus lactone, mokko lactone, eremanthin, and their derivatives” (J Nat Prod, 1999).

Assays:
[1] = Inhibition of killing activity of CD8+ specific mouse CTL-OE4 cells; format: functional, cell-based
A549 = experiment: Inhibition of IL-1-beta-induced ICAM1 expression in human A549 cells; format: functional, cell-based

Row | Structure (SMILES) | IC50 (A549) [µM] | IC50 [1] [µM]
1 | C=C1CC[C@H]2C(C)=CCC3=C(C)C(=O)O[C@@H]3[C@@H]12 | 142 | > 100
2 | C=C1CC[C@@]23O[C@]2(C)CC[C@@H]2[C@H](OC(=O)[C@H]2C)[C@@H]13 | 253 | > 1000
3 | C=C1CC[C@]23O[C@@]2(C)CCC2=C(C)C(=O)O[C@@H]2[C@@H]13 | 136 | > 1000
4 | C=C1CC[C@@H]2[C@H](OC(=O)[C@H]2C)[C@H]2C(C)=CC[C@@H]12 |  | > 100
5 | C=C1CC[C@H]2C(=C)CCC3=C(C)C(=O)O[C@@H]3[C@@H]12 | 442 | 50
6 | C=C1CC[C@]23O[C@@]2(C)CC[C@@H]2[C@H](OC(=O)[C@H]2C)[C@@H]13 | 504 | 597
7 | C=C1C(=O)O[C@@H]2[C@H]3C(C)=CC[C@H]3C(=C)CC[C@@H]12 [ISODEHYDROCOSTUS LACTONE] |  | 16
8 | C=C1CC[C@H]2C(=C)CC[C@@H]3[C@H](OC(=O)[C@H]3C)[C@@H]12 [MOKKO LACTONE] | 251 | > 1000

The remaining compounds from weak to strong by IC50 (A549), led by results:

Row | IC50 (A549) [µM] | Structure (SMILES) | IC50 [1] [µM]
9 | 117 | C=C1CC[C@@H]2[C@H]1[C@H]1OC(=O)[C@@H](C)[C@@H]1C[C@H]1O[C@@]21C | 422
10 | 46 | C=C1CC[C@H]2C(C)=CC[C@H]3C(=C)C(=O)O[C@@H]3[C@@H]12 [EREMANTHIN] | 11
11 | 10 | C=C1CC[C@]23O[C@@]2(C)CC[C@H]2C(=C)C(=O)O[C@@H]2[C@@H]13 | 7
12 | 10 | C=C1CC[C@H]2C(=C)CC[C@H]3C(=C)C(=O)O[C@@H]3[C@@H]12 [DEHYDROCOSTUSLACTONE] | 14
13 | 8 | C=C1CCC2=C(C)CC[C@H]3C(=C)C(=O)O[C@@H]3[C@@H]12 | 15
14 | 7 | C=C1CC[C@@]23O[C@]2(C)CC[C@H]2C(=C)C(=O)O[C@@H]2[C@@H]13 | 7
15 | 6 | C=C1CC[C@@H]2[C@H]1[C@H]1OC(=O)C(=C)[C@@H]1C[C@H]1O[C@@]21C | 8
